This passage reports MIC results from patent US7223759B2, “Antibacterial 3,5-diaminopiperidine-substituted aromatic and heteroaromatic compounds” (Anadys Pharmaceuticals, Inc., priority 2003, dated 2007).

Some results are limits rather than exact numbers.

The first test deals with Escherichia coli (ATCC25922) or Staphylococcus aureus (ATCC25923). As to the kind of experiment: Antibacterial MIC, microdilution method in Mueller-Hinton medium. The note with it: Escherichia coli, 18 h, MIC in E. coli or S. aureus; two-fold serial dilutions 64 to 0.5 μg/ml in duplicate; 18 hours of incubation at 35° C.; read-out: Potency (MIC). The format is cell-based. The method in brief:
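Two-fold serial dilutions from 64 to 0.5 μg/ml, in duplicate, by broth microdilution in Mueller-Hinton medium (NCCLS M7-A5). MIC taken as the lowest concentration preventing visible growth after 18 h at 35° C.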
Regarding `COc1nc(Nc2ccc(C(=O)Oc3ccccc3)c(O)c2)nc(N2CCCCC2)n1.Cl` [4-[4-((3R,5S)-3,5-Diamino-piperidin-1-yl)-6-methoxy-[1,3,5]triazin-2-ylamino]-2-hydroxy-benzoic acidphenylester], the minimum inhibitory concentration (MIC) is under 16 µg/mL.
On the same count and under the same terms, for `O=S(=O)(Nc1ccc2cn[nH]c2c1)c1ccc(Nc2nc(N3CCCCC3)nc(N3CCN(c4ccncc4)CC3)n2)cc1` [4-[4-((3S,5R)-3,5-DSiamino-piperidin-1-yl)-6-(4-pyridin-4-yl-piperazin-1-yl)-[1,3,5]triazin-2-ylamino]-N-(1H-indazol-6-yl)-benzenesulfonamide] the value was under 64 µg/mL; for `N[C@@H]1C[C@H](N)CN(c2nc(Nc3ccc(S(=O)(=O)Nc4ccc5cn[nH]c5c4)cc3)nc(N3CCC(N4CCCC4)CC3)n2)C1` [4-[4-((3S,5R)-3,5-Diamino-piperidin-1-yl)-6-(4-pyrrolidin-1-yl-piperidin-1-yl)-[1,3,5]triazin-2-ylamino]-N-(1H-indazol-6-yl)-benzenesulfonamide], over 64 µg/mL; for `Cl.O=C(Oc1ccccc1)c1ccc(Nc2nc(N3CCCCC3)nc(N3CCCC3)n2)cc1O` [4-[4-((3S,5R)-3,5-Diamino-piperidin-1-yl)-6-((3R,4S)-3,4-dihydroxy-pyrrolidin-1-yl)-[1,3,5]triazin-2-ylamino]-2-hydrooxy-benzoic acidphenyl ester], under 64 µg/mL.
`Cl.O=C(Oc1ccccc1)c1ccc(Nc2cc(N3CCCCC3)cc(N3CCCCC3)c2)cc1O` [4-[4-((3S,5R)-3,5-Diamino-piperidin-1-yl)-6-((R)-3-hydroxy-piperidin-1-yl)-[1,3,5]triazin-2-ylamino]-2-hydroxy-benzoicacidphhenylester]: the minimal inhibitory concentration (MIC) was under 64 µg/mL.
`N[C@@H]1C[C@H](N)CN(c2nc(Nc3ccc(S(=O)(=O)Nc4ccc5cn[nH]c5c4)cc3)nc(NC3CCCNC3)n2)C1` (stereo partly drawn) [4-[4-((3S,5R)-3,5-Diamino-piperidin-1-yl)-6-(piperidin-3-ylamino)-[1,3,5]triazin-2-ylamino]-N-(1H-indazol-6-yl)-benzenesulfonamide]: the MIC is over 64 µg/mL.
As for `O=S(=O)(Nc1ccc2cn[nH]c2c1)c1ccc(Nc2nc(N3CCCCC3)nc(N3CCNCC3)n2)cc1` [4-[4-((3S,5R)-3,5-Diamino-piperidin-1-yl)-6-piperazin-1-yl[1,3,5,-triazin-2-ylamino]-N-(1H-indazol-6-yl)-benzenesulfonamide], the MIC is over 64 µg/mL.
In the case of `Cl.NCCN(CCN)c1nc(Nc2ccc(C(=O)Oc3ccccc3)c([N+](=O)[O-])c2)nc(N2CCCCC2)n1` [4-[4-[Bis-(2-amino-ethyl)-amino]-6-((3R,5S)-3,5-diamino-piperidin-1-yl)-[1,3,5]triazin-2-ylamino]-2-hydroxy-benzoic acidphenyl ester], the MIC was under 64 µg/mL.
Turning to `Cl.N[C@@H]1C[C@H](N)CN(c2nc(N3C[C@H](N)C[C@H](N)C3)nc(N(c3ccccc3)c3ccc(O)cc3)n2)C1` [4-{[4,6-Bis-((3R,5S)-3,5-diamino-piperidin-1-yl)-[1,3,5]triazin-2-yl]-phenyl-amino}-phenyl], the MIC was over 64 µg/mL.
Same read-out and setting: for `Cl.O=C(CCCCC1SCC2NC(=O)NC21)Nc1ccc(Nc2nc(N3CCCCC3)nc(N3CCCCC3)n2)cc1O` [5-((S)-2-Oxo-hexahydro-thieno[3,4-d]imidazol-2-yl)-penanoicacid {4-[4-((3S,5S)-3-amino-5-azido-piperidin-1-yl)-6-((3S,5R)-3,5-diamino-piperidin-1-yl)-[1,3,5]triazin-2-ylamino]-2-hydroxy-phenyl}-amide] the value was over 64 µg/mL.
Same read-out and setting: in the case of `Cl.Nc1nc(Nc2ccc(Cl)c(Cl)c2)nc(C2C[C@@H](N)C[C@@H](N)C2)n1` (stereo partly drawn) [6-((3S,5R)-3,5-Diamino-piperidin-1-yl)-N-(3,4-dichlorro-phenyl)-[1,3,5]triazine-2,4-diamine] it was over 64 µg/mL; in that of `Cc1cc(=O)oc2cc(Nc3nc(N4C[C@H](N)C[C@H](N)C4)nc(N4CC[C@H](O)[C@@H]4CN)n3)ccc12` [7-[4-((2S,3S)-2-Aminomethyl-3-hydroxy-pyrrolidin-1-yl)-6-((3R,5S)-3,5-diamino-piperidin-1-yl)-[1,3,5]triazin-2-ylamino]-4-methyl-chromen-2-one], over 64 µg/mL.
As for `COc1nc(Nc2ccc3c(C)cc(=O)oc3c2)nc(N2CCCCC2)n1.Cl` [7-[4-((3R,5S)-3,5-DSiamino-piperidin-1-yl)-6-methoxy-[1,3,5]triazin-2-ylamino]-4-methyl-chromen-2-one], the MIC is over 64 µg/mL.
With `Cc1cc(=O)oc2cc(Nc3nc(N4C[C@H](N)C[C@H](N)C4)nc(N4CCC[C@@H](O)C4)n3)ccc12` [7-[4-((3R,5S)-3,5-Diamino-piperidin-1-yl)-6-((R)-3-hydroxy-piperidin-1-yl)-[1,3,5]triazin-2-ylamino]-4-methyl-chromen-2-one], the minimum inhibitory concentration (MIC) was under 64 µg/mL.

The test is the same for the next values; noted with them: Escherichia coli, 18 h, read-out: Potency (MIC).
In the case of `NC[C@@H]1C[C@H](CN)CN(c2nc(Nc3ccc(S(=O)(=O)Nc4ccc5cn[nH]c5c4)cc3)nc(N3C[C@H](N)C[C@H](N)C3)n2)C1` [4-[4-((3R,5S)-3,5-Bis-(aminomethyl)-piperidin-1-yl)-6-((3R,5S)-3,5-diamino-piperidin-1-yl)-[1,3,5]triazin-2-ylamino]-N-(1H-indazol-6-yl)-benzenesulfonamide], the MIC was over 64 µg/mL.
Same read-out and setting: in the case of `N[C@@H]1C[C@H](N)CN(c2nc(Nc3ccc(S(=O)(=O)Nc4ccc5cn[nH]c5c4)cc3)nc(N3C[C@@H](N)[C@@H](N)C3)n2)C1` [4-[4-((3R,5S)-3,5-Diamino-piperidin-1-yl)-6-((3R,4S)-3,4-diamino-pyrrolidin-1-yl)-[1,3,5]triazin-2-ylamino]-N-(1H-indazol-6-yl)-benzenesulfonamide] it was over 64 µg/mL; in that of `COc1nc(Nc2ccc(S(=O)(=O)Nc3ccc4cn[nH]c4c3)cc2)nc(N2C[C@H](N)C[C@H](N)C2)n1` [4-[4-((3R,5S)-3,5-Diamino-piperidin-1-yl)-6-methoxy-[1,3,5]triazin-2-ylamino]-N-(1H-indazol-6-yl)-benzenesulfonamide], over 64 µg/mL; in that of `N[C@@H]1C[C@H](N)CN(c2nc(NCCCn3ccnc3)nc(Nc3ccc(S(=O)(=O)Nc4ccc5cn[nH]c5c4)cc3)n2)C1` [4-[4-((3S,5R)-3,5-Diamino-piperidin-1-yl)-6-(3-imidazol-1-yl-propylamino)-[1,3,5]triazin-2-ylamino]-N-(1H-indazol-6-yl)-benzenesulfonamide], over 64 µg/mL.
On to `N[C@@H]1C[C@H](N)CN(c2nc(Nc3ccc(S(=O)(=O)Nc4ccc5cn[nH]c5c4)cc3)nc(N3C[C@@H](O)[C@@H](O)C3)n2)C1` [4-[4-((3S,5R)-3,5-Diamino-piperidin-1-yl)-6-((3R,4S)-3,4-dihydroxy-pyrrolidin-1-yl)-[1,3,5]triazin-2-ylamino]-N-(1H-indazol-6-yl)-benzenesulfonamide], for which the minimal inhibitory concentration (MIC) was over 64 µg/mL.
Consider `N[C@@H]1C[C@H](N)CN(c2nc(Nc3ccc(S(=O)(=O)Nc4ccc5cn[nH]c5c4)cc3)nc(N3C[C@H](O)C[C@@H](O)C3)n2)C1` [4-[4-((3S,5R)-3,5-Diamino-piperidin-1-yl)-6-((3R,5R)-3,5-dihydroxy-piperidin-1-yl)-[1,3,5]triazin-2-ylamino]-N-(1H-indazol-6-yl)-benzenesulfonamide], for which the MIC was over 64 µg/mL.
As for `N[C@@H]1C[C@H](N)CN(c2nc(Nc3ccc(S(=O)(=O)Nc4ccc5cn[nH]c5c4)cc3)nc(N3CCC[C@@H](O)C3)n2)C1` [4-[4-((3S,5R)-3,5-Diamino-piperidin-1-yl)-6-((R)-3-hydroxy-piperidin-1-yl)-[1,3,5]triazin-2-ylamino]-N-(1H-indazol-6-yl)-benzenesulfonamide], the minimal inhibitory concentration (MIC) was over 64 µg/mL.
As for `N[C@@H]1C[C@H](N)CN(c2nc(Nc3ccc(NC(=O)CCCC[C@@H]4SC[C@H]5NC(=O)N[C@@H]45)c(O)c3)nc(N3C[C@H](N)C[C@H](N)C3)n2)C1` [5-((3aR,4S,6aS)-2-Oxo-hexahydro-thieno[3,4-d]imidazol-4-yl)-pentanoicacid {4-[4-((3R,5S)-3,5-diamino-piperidin-1-yl)-6-((3S,5R)-3,5-diamino-piperidin-1-yl)-[1,3,5]triazin-2-ylamino]-2-hydroxy-phenyl}-amide], the minimum inhibitory concentration (MIC) is over 64 µg/mL.
Still for that read-out and setting: in the case of `N[C@@H]1C[C@H](N)CN(c2nc(N3C[C@H](N)C[C@H](N)C3)nc(-n3ccc4cc(Br)ccc43)n2)C1` [5-Bromo-1-(4,6-Bis-((3R,5S)-3,5-diamino-piperidin-1-yl)-[1,3,5]triazain-2-yl)-1H-indole] it was under 64 µg/mL; in that of `Cc1cc(=O)oc2cc(Nc3nc(NCCN)nc(N4C[C@H](N)C[C@H](N)C4)n3)ccc12` [7-[4-(2-Amino-ethylamino)-6-((3R,5S)-3,5-diamino-piperidin-1-yl)-[1,3,5]triazin-2-ylamino]-4-methyl-chromen-2-one], over 64 µg/mL.
On the same count and under the same terms, for `Cc1cc(=O)oc2cc(Nc3nc(N4C[C@H](N)C[C@H](N)C4)nc(N4C[C@H](O)C[C@H]4CN)n3)ccc12` [7-[4-((2S,4R)-2-Aminomethyl-4-hydroxy-pyrrolidin-1-yl)-6-((3R,5S)-3,5-diamino-piperidin-1-yl)-[1,3,5]triazin-2-ylamino]-4-methyl-chromen-2-one] the value was over 64 µg/mL; for `Cc1cc(=O)oc2cc(Nc3nc(N4C[C@H](N)C[C@H](N)C4)nc(N4CC[C@H](O)[C@H](CN)C4)n3)ccc12` [7-[4-((3R,4S)-3-Aminomethyl-4-hydroxy-piperidin-1-yl)-6-((3R,5S)-3,5-diamino-piperidin-1-yl)-[1,3,5]triazin-2-ylamino]-4-methyl-chromen-2-one], over 64 µg/mL; for `Cc1cc(=O)oc2cc(Nc3nc(N4C[C@H](N)C[C@H](N)C4)nc(N4C[C@H](O)C[C@@H](O)C4)n3)ccc12` [7-[4-((3R,5S)-3,5-Diamino-piperidin-1-yl)-6-((3R,5R)-3,5-dihydroxy-piperidin-1-yl)-[1,3,5]triazin-2-ylamino]-4-methyl-chromen-2-one], over 64 µg/mL.
